From patent publication US9510593B2, “S-benzylthiouracil compounds and methods of enhancing plant root growth” (Valent BioSciences Corporation, priority 2014, dated 2016) come the findings set out here.

“Also recorded” adds a separate entry of the source. Like-named read-outs stand apart in the source and are kept apart here.

What all share (format): in vivo
The test system of assay [1] is tomato. Description: Tomato petri plate assay. The note with it: for Shoot Length / Root Length: 6 days after sowing; for Shoot Length: control 3.3; for Root Length: control 3.5; for change in vivo at 10 ppm: Solanum lycopersicum, 144 h, after 6 days of continuous exposure, read-out: Percent Increase (percent change in primary tomato root length); for Effect on tomato root growth, in words: continuous exposure. As to the method:
For tomato, the plants were grown in disposable (150 mm) sterile plastic petri plates (Falcon, BD Biosciences, Franklin Lakes, N.J.). In the tomato assay, a single sheet of Whatman #1 filter paper was placed at the bottom of the plate, 15 tomato seeds were added, and 10 mL of treatment solution was added. At the end of 6 d, the 10 largest seedlings were selected for measurement from each plate. In each study, a minimum of 3 replicate plates were used. In tomato, several S-Benzylthiouracil compounds were tested to determine the effects on root growth.

Assay [2] relates to rice. Put plainly: Rice pouch assay: growth of primary root and shoot. The settings on record: for Percent Change (rice primary root growth): compounds and water-soluble salts; for change in vivo at 10 ppm: Oryza sativa, 144 h, read-out: Percent Change in Primary Root Length in Rice; for Shoot Length: control 2.96. As to the method:
Seeds were placed in germination pouches consisting of germination paper as an insert in a gas-permeable 16×14 cm plastic pouch (CYG Pouch; Mega International, St. Paul, Minn.). In pouch solution evaluation, S-Benzylthiouracil compounds or their salts were dissolved in a small volume of DMSO and added to sterile water with a maximum of 0.5% v/v DMSO at final dilution. The S-Benzylthiouracil solution was subsequently pipetted into the growth pouch, followed by the addition of seeds of the crop being tested. The pouches were arranged in a randomized complete block design in growth racks and placed in 19-liter polycarbonate food storage containers (Rubbermaid Commercial Products, Winchester, Va.). The sealed containers were held in an upright growth cabinet maintained at 25 C with a 12 hour light: 12 hour dark photoperiod. For rice, plants were harvested at 6 d, while in mungbean and corn, the plants were harvested at 4 d post sowing. Measurements were performed on the primary root and shoot of each seedling. The growth of the primary root of rice was examined in the pouch assay system. The results of the testing, presented as percent change in root length across all S-Benzylthiouracil compounds, are shown below.

The test system of assay [3] is mungbean. Put plainly: Mungbean pouch assay: growth of primary root and shoot. The note with it: for change in vivo at 10 ppm: 96 h, read-out: Percent Change in Primary Root Length of Mungbean; for Shoot Length / Root Length: 4 days; for Shoot Length: control 4.9; for Root Length: control 6.1. The protocol:
Seeds were placed in germination pouches consisting of germination paper as an insert in a gas-permeable 16×14 cm plastic pouch (CYG Pouch; Mega International, St. Paul, Minn.). In pouch solution evaluation, S-Benzylthiouracil compounds or their salts were dissolved in a small volume of DMSO and added to sterile water with a maximum of 0.5% v/v DMSO at final dilution. The S-Benzylthiouracil solution was subsequently pipetted into the growth pouch, followed by the addition of seeds of the crop being tested. The pouches were arranged in a randomized complete block design in growth racks and placed in 19-liter polycarbonate food storage containers (Rubbermaid Commercial Products, Winchester, Va.). The sealed containers were held in an upright growth cabinet maintained at 25 C with a 12 hour light: 12 hour dark photoperiod. For rice, plants were harvested at 6 d, while in mungbean and corn, the plants were harvested at 4 d post sowing. Measurements were performed on the primary root and shoot of each seedling. The growth of the primary root of mungbean was examined in the pouch assay system. The results of the testing, presented as percent change in root length across all the free S-Benzylthiouracil compounds is shown below. The following S-Benzylthiouracil compounds have benzyl substitutions as defined in Table 11 below.

Setting [4] is: 10 ppm (10 mg/L), benzyl ring substitutions, vs control.
The mark [5] stands for this setting: 10 ppm (10 mg/L), benzyl ring substitutions.
The mark [6] stands for this setting: 10 ppm equivalent, 6 days after sowing.
The mark [7] stands for this setting: 10 ppm equivalent, 6 days after sowing, control 8.61.
[8] abbreviates: 10 ppm (10 mg/L), uracil moiety substitutions, vs control.
[9] abbreviates: 10 ppm (10 mg/L), uracil moiety substitutions.

As to `Oc1ccnc(SCc2ccccc2)n1` [Compound 2, 2-[(phenylmethyl)thio]-4(3H)-pyrimidinone], the results for the “Shoot Length” value in assay [1] (1 ppm) and in assay [1] (10 ppm) were 3.3 cm and 3.0 cm, respectively. In addition, the “Root Length” value turned out to be 3.8 cm in assay [1] (1 ppm); 3.8 cm in assay [1] (10 ppm); 12.44 cm in assay [2] (10 mg/liter, 6 days after sowing, untreated control 10.50); 12.21 cm in assay [2] (30 mg/liter, 6 days after sowing, untreated control 10.50); 6.7 cm in assay [2] (1 ppm, 6 days after treatment, control 5.7); 7.8 cm in assay [2] (10 ppm, 6 days after treatment, control 5.7). Moreover, the change in vivo at 10 ppm in assay [1] (10 ppm) was found to be 23%; in assay [2] (setting [4]), 15.6%; in assay [3] (setting [5]), 18.9%. The entries for the “Effect on tomato root growth, in words” value in assay [1] and in assay [1] (listed as S-Benzylthiouracil) were “one of the most active compounds in tomato; also recorded: root length was increased in a dose-dependent fashion” and “active at promoting root growth”, respectively. The “Percent Change (rice primary root growth)” value in assay [2] (10 ppm, 6 days after sowing) was found to be 15.6%. In assay [2] (rice pouch assay, compared to control), the “Effect on rice root growth, in words” value is listed as “increased the root length compared to the control treatment”. Besides, the “Percent Change in Primary Root Length of Mungbean” value in assay [3] (setting [5]) turned out to be 18.9%.
As to `Oc1ccnc(SCc2ccc(F)cc2)n1` [Compound 3], the change in vivo at 10 ppm in assay [1] (10 ppm) amounted to 2.8%; in assay [2] (setting [4]) it was 13.9%; in assay [3] (setting [5]), 10.4%. In addition, the “Shoot Length” value in assay [2] (setting [6]) was determined as 2.59 cm. Besides, in assay [2] (setting [7]), the “Root Length” value was 9.38 cm.
Regarding `Oc1ccnc(SCc2ccc(F)c(F)c2)n1` [Compound 5, S-(3,4-Difluorobenzyl)-2-thiouracil], the change in vivo at 10 ppm in assay [1] (10 ppm) is 23.4%; in assay [2] (setting [4]), 13.4%; in assay [3] (setting [5]) it was 17.6%.
Consider `Oc1cc(O)nc(SCc2ccccc2)n1` [Compound 10], for which the change in vivo at 10 ppm in assay [1] (10 ppm) was determined as 8.4%; in assay [2] (setting [8]) it was 11.5%; in assay [3] (setting [9]), 5.9%.
In the case of `Oc1nccc(SCc2cccc(F)c2)n1` [Compound 11], the change in vivo at 10 ppm was -34.8% in assay [1] (10 ppm), 10.6% in assay [2] (setting [8]) and 8.9% in assay [3] (setting [9]). In addition, the “Effect on tomato root growth, in words” value in assay [1] was “root growth inhibition”.
The like results for `Oc1nc(SCc2cccc(F)c2)nc2[nH]cnc12` [Compound 13] were, in that order, 0.8%, 8.7%, 4.5% and “root growth inhibition”.
As for `Cc1cc(O)nc(SCc2ccccc2)n1` [Compound 15], the “Effect on tomato root growth, in words” value in assay [1] is “root growth inhibition”. Moreover, in assay [2] (setting [8]), the “Percent Change in Primary Root Length in Rice” value was determined as 7.6% and the change in vivo at 10 ppm is 7.6%. Also, in assay [3] (1 ppm), the “Shoot Length” value was 5.6 cm and the “Root Length” value turned out to be 6.9 cm. In addition, in assay [3] (10 ppm), the “Shoot Length” value is 5.0 cm and the “Root Length” value is reported as 8.5 cm. For the same compound, the change in vivo at 10 ppm in assay [3] (setting [9]) came out at 36.2%. For the same compound, the “Effect on mungbean root (and shoot) growth, in words” value in assay [3] (mungbean pouch assay) is “greatest increases in mungbean root growth; also recorded: both root and shoot showed significant increases in growth”.
Turning to `Cc1cc(O)nc(SCc2c(Cl)cccc2Cl)n1` [Compound 16, S-(2,6-Dichlorobenzyl)-6-methyl-2-thiouracil], the change in vivo at 10 ppm is -7.2% in assay [1] (10 ppm), 5.5% in assay [2] (setting [8]) and 6.6% in assay [3] (setting [9]). For the same compound, in assay [2] (setting [6]), the “Shoot Length” value was determined as 2.71 cm. Moreover, the “Root Length” value in assay [2] (setting [7]) is 9.31 cm.
For `Oc1cc(O)nc(SCc2cccc(F)c2)n1` [Compound 18], the change in vivo at 10 ppm in assay [1] (10 ppm) was 15.4%; in assay [2] (setting [8]), 4%; in assay [3] (setting [9]), 11.3%. Further, the “Percent Change (rice primary root growth)” value in assay [2] (10 ppm, 6 days after sowing) came out at 4.0%.
